Reference: the NIST ThermoML archive (doi:10.1016/j.jct.2003.11.008)

Tests used:
[1] = xn = mol fraction of the nth substance listed; settings: 318.15 K, 101.3 kPa, Liquid
[2] = excess molar enthalpy (molar enthalpy of mixing); xn = mol fraction of the nth substance listed; settings: 318.15 K, 101.3 kPa, Liquid

CCCCCCCCCCCCCCCCC [heptadecane] + COC(C)=O
Settings	excess molar enthalpy [kcal/mol]	excess molar volume [m3/mol]
[1], x2 = 0.0872	–	4.73e-07
[1], x2 = 0.1719	–	9e-07
[1], x2 = 0.2901	–	1.422e-06
[1], x2 = 0.3832	–	1.742e-06
[1], x2 = 0.4682	–	1.916e-06
[1], x2 = 0.5391	–	1.999e-06
[1], x2 = 0.5988	–	2.022e-06
[1], x2 = 0.6524	–	1.981e-06
[1], x2 = 0.694	–	1.916e-06
[1], x2 = 0.7348	–	1.806e-06
[1], x2 = 0.7632	–	1.698e-06
[1], x2 = 0.8016	–	1.579e-06
[1], x2 = 0.827	–	1.455e-06
[1], x2 = 0.8469	–	1.363e-06
[1], x2 = 0.8704	–	1.246e-06
[1], x2 = 0.9208	–	9.07e-07
[1], x2 = 0.9545	–	5.89e-07
[1], x2 = 0.9807	–	2.74e-07
[2], x2 = 0.113	0.176	–
[2], x2 = 0.2193	0.327	–
[2], x2 = 0.3028	0.434	–
[2], x2 = 0.3894	0.521	–
[2], x2 = 0.4626	0.576	–
[2], x2 = 0.5247	0.606	–
[2], x2 = 0.5794	0.615	–
[2], x2 = 0.6278	0.607	–
[2], x2 = 0.6655	0.593	–
[2], x2 = 0.6858	0.582	–
[2], x2 = 0.7195	0.56	–
[2], x2 = 0.7539	0.528	–
[2], x2 = 0.7883	0.489	–
[2], x2 = 0.8246	0.444	–
[2], x2 = 0.861	0.398	–
[2], x2 = 0.8938	0.346	–
[2], x2 = 0.9264	0.29	–
[2], x2 = 0.9502	0.236	–
[2], x2 = 0.9763	0.145	–

CCCCCCCCC [nonane] + CCOC(C)=O
Settings	excess molar enthalpy [kcal/mol]	excess molar volume [m3/mol]
[1], x2 = 0.0916	–	4.94e-07
[1], x2 = 0.1769	–	8.53e-07
[1], x2 = 0.2442	–	1.049e-06
[1], x2 = 0.3108	–	1.228e-06
[1], x2 = 0.3462	–	1.289e-06
[1], x2 = 0.4363	–	1.418e-06
[1], x2 = 0.4938	–	1.446e-06
[1], x2 = 0.5469	–	1.447e-06
[1], x2 = 0.5934	–	1.426e-06
[1], x2 = 0.6418	–	1.361e-06
[1], x2 = 0.6869	–	1.292e-06
[1], x2 = 0.7308	–	1.202e-06
[1], x2 = 0.7614	–	1.142e-06
[1], x2 = 0.8417	–	8.49e-07
[1], x2 = 0.9044	–	5.78e-07
[1], x2 = 0.9558	–	2.94e-07
[2], x2 = 0.0596	0.0869	–
[2], x2 = 0.131	0.172	–
[2], x2 = 0.2117	0.253	–
[2], x2 = 0.295	0.316	–
[2], x2 = 0.3664	0.362	–
[2], x2 = 0.436	0.394	–
[2], x2 = 0.4899	0.406	–
[2], x2 = 0.5447	0.408	–
[2], x2 = 0.5881	0.399	–
[2], x2 = 0.6166	0.391	–
[2], x2 = 0.629	0.383	–
[2], x2 = 0.6629	0.373	–
[2], x2 = 0.7061	0.347	–
[2], x2 = 0.752	0.32	–
[2], x2 = 0.7991	0.277	–
[2], x2 = 0.8421	0.235	–
[2], x2 = 0.8875	0.177	–
[2], x2 = 0.9312	0.118	–
[2], x2 = 0.9672	0.0591	–
